According to the NIST ThermoML archive (doi:10.1021/je049950g):
Numbers after ± are expanded uncertainties.

Settings: Liquid

SMILES	vapor or sublimation pressure (348.15 K) [kPa]	vapor or sublimation pressure (353.15 K) [kPa]	vapor or sublimation pressure (363.15 K) [kPa]	vapor or sublimation pressure (368.15 K) [kPa]	vapor or sublimation pressure (373.15 K) [kPa]	vapor or sublimation pressure (378.15 K) [kPa]	vapor or sublimation pressure (388.15 K) [kPa]	vapor or sublimation pressure (393.15 K) [kPa]	vapor or sublimation pressure (398.15 K) [kPa]	vapor or sublimation pressure (403.15 K) [kPa]	vapor or sublimation pressure (408.15 K) [kPa]	vapor or sublimation pressure (413.15 K) [kPa]	vapor or sublimation pressure (418.15 K) [kPa]	vapor or sublimation pressure (423.15 K) [kPa]	other results
CC1COC(=O)O1 (stereo not given) [4-methyl-1,3-dioxolan-2-one]	0.2509 ± 0.024	0.3277 ± 0.029	0.5553 ± 0.043	0.7206 ± 0.053	0.9231 ± 0.066	1.167 ± 0.081	1.856 ± 0.086	2.284 ± 0.092	2.826 ± 0.099	3.482 ± 0.11	4.265 ± 0.12	5.153 ± 0.13	6.226 ± 0.14	7.454 ± 0.16	vapor or sublimation pressure (358.15 K): 0.4377 ± 0.035 kPa; vapor or sublimation pressure (428.15 K): 8.959 ± 0.18 kPa; vapor or sublimation pressure (433.15 K): 10.78 ± 0.21 kPa; vapor or sublimation pressure (438.15 K): 12.69 ± 0.23 kPa; vapor or sublimation pressure (443.15 K): 14.81 ± 0.26 kPa; vapor or sublimation pressure (448.15 K): 17.81 ± 0.3 kPa; vapor or sublimation pressure (453.15 K): 20.5 ± 0.34 kPa; vapor or sublimation pressure (458.15 K): 24.08 ± 0.39 kPa; vapor or sublimation pressure (463.15 K): 27.96 ± 0.44 kPa; vapor or sublimation pressure (468.15 K): 33.01 ± 0.51 kPa; vapor or sublimation pressure (473.15 K): 37.77 ± 0.56 kPa
CC(=O)N(C)C [N,N-dimethylethanamide]	4.135 ± 0.031	5.192 ± 0.037	7.995 ± 0.046	9.806 ± 0.054	11.98 ± 0.063	14.52 ± 0.074	21.01 ± 0.1	25.03 ± 0.12	29.69 ± 0.13	35.02 ± 0.15	41.11 ± 0.18	48.06 ± 0.2	55.91 ± 0.23	64.78 ± 0.26	vapor or sublimation pressure (298.15 K): 0.2936 ± 0.0067 kPa; vapor or sublimation pressure (303.15 K): 0.3925 ± 0.0082 kPa; vapor or sublimation pressure (308.15 K): 0.5179 ± 0.01 kPa; vapor or sublimation pressure (313.15 K): 0.6782 ± 0.013 kPa; vapor or sublimation pressure (318.15 K): 0.8946 ± 0.016 kPa; vapor or sublimation pressure (323.15 K): 1.163 ± 0.02 kPa; vapor or sublimation pressure (328.15 K): 1.526 ± 0.021 kPa; vapor or sublimation pressure (333.15 K): 1.983 ± 0.023 kPa; vapor or sublimation pressure (338.15 K): 2.556 ± 0.025 kPa; vapor or sublimation pressure (343.15 K): 3.27 ± 0.028 kPa; vapor or sublimation pressure (383.15 K): 17.5 ± 0.086 kPa
